Peptide text beside a SMILES is read from it.
Test system: Botrytis cinerea (B05.10)
Experiment: Resazurin antifungal assay of 180 alpha-factor peptide variants towards Botrytis (Example 2)
Format: cell-based
Details: % inhibition of fungal growth, Botrytis conidia, resazurin; for Inhibition at 50 μM: peptide 50 μM; for Inhibition at 100 μM: peptide 100 μM; for Inhibition at 10 μM: peptide 10 μM; for Inhibition at 20 μM: peptide 20 μM
Outline: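 Resazurin viability read-out (570/620 nm fluorescence) after a 24 h, 20° C incubation of B05.10 conidia, 5000 per well, with peptide at final 10-100 μM. Growth inhibition (%) was derived by subtracting conidia-only fluorescence; four replicates per treatment.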

Structure (SMILES) | Inhibition at 50 μM | Inhibition at 100 μM | Inhibition at 10 μM | Inhibition at 15 μM (peptide 15 μM) | Inhibition at 20 μM
CSCC[C@H](NC(=O)[C@H](Cc1c[nH]cn1)NC(=O)[C@@H](N)Cc1c[nH]c2ccccc12)C(=O)N[C@@H](CC(C)C)C(=O)N[C@@H](CC(N)=O)C(=O)N[C@@H](Cc1ccccc1)C(=O)N[C@@H](CCCCN)C(=O)N1CCC[C@H]1C(=O)NCC(=O)N[C@@H](CCC(N)=O)C(=O)N1CCC[C@H]1C(=O)N[C@@H](CCSC)C(=O)N[C@@H](Cc1ccc(O)cc1)C(=O)O [compound 118] (H-WHMLNFKPGQPMY-OH; N-terminus and C-terminus assumed) | <90% | <90% | – | – | –
CSCC[C@H](NC(=O)CNC(=O)[C@H](CCC(N)=O)NC(=O)CNC(=O)[C@@H](NC(=O)[C@H](CCCCN)NC(=O)[C@H](CC(C)C)NC(=O)[C@H](CC(N)=O)NC(=O)[C@@H](NC(=O)[C@H](Cc1c[nH]c2ccccc12)NC(=O)[C@H](Cc1c[nH]cn1)NC(=O)[C@@H]1CCCN1)C(C)C)[C@@H](C)O)C(=O)N[C@@H](Cc1ccc(O)cc1)C(=O)O [compound 44] (H-PHWVNLKTGQGMY-OH; N-terminus and C-terminus assumed) | <90% | <90% | – | – | –
CSCC[C@H](NC(=O)[C@@H]1CCCN1C(=O)[C@H](CCC(N)=O)NC(=O)CNC(=O)[C@@H]1CCCN1C(=O)[C@H](Cc1c[nH]cn1)NC(=O)[C@H](CC(C)C)NC(=O)[C@H](CCC(N)=O)NC(=O)[C@@H](NC(=O)[C@H](CO)NC(=O)[C@H](Cc1c[nH]cn1)NC(=O)[C@@H](N)Cc1c[nH]c2ccccc12)C(C)C)C(=O)N[C@@H](Cc1ccc(O)cc1)C(=O)O [compound 174] (H-WHSVQLHPGQPMY-OH; N-terminus and C-terminus assumed) | <90% | <90% | – | – | –
CSCC[C@H](NC(=O)[C@@H]1CCCN1C(=O)[C@H](CCC(N)=O)NC(=O)CNC(=O)[C@@H]1CCCN1C(=O)[C@H](CCSC)NC(=O)[C@H](CC(C)C)NC(=O)[C@H](CCCCN)NC(=O)[C@H](CC(C)C)NC(=O)[C@@H](NC(=O)[C@H](CCCNC(=N)N)NC(=O)[C@@H](N)Cc1c[nH]c2ccccc12)C(C)C)C(=O)N[C@@H](Cc1ccc(O)cc1)C(=O)O [compound 149] (H-WRVLKLMPGQPMY-OH; N-terminus and C-terminus assumed) | <90% | <90% | – | – | –
CC[C@H](C)[C@H](NC(=O)[C@H](Cc1c[nH]c2ccccc12)NC(=O)[C@H](Cc1c[nH]cn1)NC(=O)[C@@H](N)CCCCN)C(=O)N[C@@H](CCCCN)C(=O)N[C@@H](CC(C)C)C(=O)N[C@@H](CCCCN)C(=O)N[C@@H](CC(N)=O)C(=O)NCC(=O)N[C@@H](CCC(N)=O)C(=O)N1CCC[C@H]1C(=O)N[C@@H](CCSC)C(=O)N[C@@H](Cc1ccc(O)cc1)C(=O)O [compound 81] (H-KHWIKLKNGQPMY-OH; N-terminus and C-terminus assumed) | 100% | 100% | <90% | <90% | 99.51%
CSCC[C@H](NC(=O)[C@@H]1CCCN1C(=O)[C@H](CCC(N)=O)NC(=O)CNC(=O)[C@@H]1CCCN1C(=O)[C@H](CCCCN)NC(=O)[C@H](CC(C)C)NC(=O)[C@@H](NC(=O)[C@H](CC(C)C)NC(=O)[C@H](Cc1ccccc1)NC(=O)[C@H](Cc1c[nH]cn1)NC(=O)[C@@H](N)CCCCN)[C@@H](C)O)C(=O)N[C@@H](Cc1ccc(O)cc1)C(=O)O [compound 96] (H-KHFLTLKPGQPMY-OH; N-terminus and C-terminus assumed) | 95.86% | 99.87% | <90% | – | <90%
CC[C@H](C)[C@H](NC(=O)[C@H](CCC(N)=O)NC(=O)[C@H](CC(C)C)NC(=O)[C@H](Cc1ccccc1)NC(=O)[C@H](Cc1c[nH]cn1)NC(=O)[C@@H](N)Cc1c[nH]c2ccccc12)C(=O)N[C@@H](CCCCN)C(=O)N1CCC[C@H]1C(=O)NCC(=O)N[C@@H](CCC(=O)O)C(=O)N1CCC[C@H]1C(=O)N[C@@H](CCSC)C(=O)N[C@@H](Cc1ccc(O)cc1)C(=O)O [compound 150] (H-WHFLQIKPGEPMY-OH; N-terminus and C-terminus assumed) | <90% | <90% | – | – | –
